Test results published in patent publication US9695155B2, “Herbicidal substituted pyrimidinyloxy benzene compounds” (E. I. DU PONT DE NEMOURS AND COMPANY, priority 2013, dated 2017).

Experiments:
spring barley = test: Test D preemergence; type: in vivo, Hordeum vulgare; conditions: Hordeum vulgare, pre-emergence
Summary of the method: (§1)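 Values are 0–100 visual control ratings (0 none, 100 complete) given 7–21 days after application. Soil for preemergence was silt loam; postemergence plants stood 2–18 cm tall.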

winter barley = test: Test D preemergence; type: in vivo, Hordeum vulgare; conditions: Hordeum vulgare, pre-emergence
Summary of the method: as §1

wild buckwheat = test: Test D preemergence; type: in vivo, Polygonum convolvulus; conditions: Fallopia convolvulus, pre-emergence
Summary of the method: as §1

wild mustard = test: Test D preemergence; type: in vivo, Sinapis arvensis; conditions: Brassica, pre-emergence
Summary of the method: as §1

field poppy = test: Test D postemergence; type: in vivo, Papaver rhoeas; conditions: Papaver rhoeas, post-emergence
Source text: (§2) Seeds of plant species selected from bluegrass (annual bluegrass, Poa annua), blackgrass (Alopecurus myosuroides), canarygrass (littleseed canarygrass, Phalaris minor), chickweed (common chickweed, Stellaria media), galium (catchweed bedstraw, Galium aparine), bromegrass, downy (downy bromegrass, Bromus tectorum), field poppy (Papaver rhoeas), field violet (Viola arvensis), green foxtail (Setaria viridis), deadnettle (henbit deadnettle, Lamium amplexicaule), Italian ryegrass (Lolium multiflorum), kochia (Kochia scoparia), lambsquarters (Chenopodium album), oilseed rape (Brassica napus), pigweed (Amaranthus retroflexus), chamomile (scentless chamomile, Matricaria inodora), Russian thistle (Salsola kali), speedwell (bird's-eye speedwell, Veronica persica), spring barley (Hordeum vulgare), spring wheat (Triticum aestivum), wild buckwheat (Polygonum convolvulus), wild mustard (Sinapis arvensis), wild oat (Avena fatua), wild radish (Raphanus raphanistrum), windgrass (Apera spica-venti), winter barley (Hordeum vulgare), and winter wheat (Triticum aestivum) were planted into a silt loam soil and treated preemergence with test chemicals formulated in a non-phytotoxic solvent mixture which included a surfactant.
(§3) At the same time, these species were planted in pots containing Redi-Earth® planting medium (Scotts Company, 14111 Scottslawn Road, Marysville, Ohio 43041) comprising spaghnum peat moss, vermiculite, wetting agent and starter nutrients and treated with postemergence applications of the test chemicals formulated in the same manner. Plants ranged in height from 2 to 18 cm (1- to 4-leaf stage). Treated plants and controls were maintained in a controlled growth environment for 7 to 21 days after which time all species were compared to controls and visually evaluated. Plant response ratings, summarized in Table D, are based on a scale of 0 to 100 where 0 is no effect and 100 is complete control. A dash (-) response means no test result.

kochia = test: Test D postemergence; type: in vivo, Kochia scoparia; conditions: Bassia scoparia, post-emergence
Source text: as §2, §3

chamomile = test: Test D postemergence; type: in vivo, Matricaria inodora; conditions: Tripleurospermum inodorum, post-emergence
Source text: as §2, §3

surinam grass = test: Test F preemergence; type: in vivo, Brachiaria decumbens; conditions: 21 days, scale 0 to 100
Source text: (§4) Seeds of plant species selected from bermudagrass (Cynodon dactylon), surinam grass (Brachiaria decumbens), large (Lg) crabgrass (Digitaria sanguinalis), crabgrass, naked (naked crabgrass, Digitaria nuda), foxtail, green (green foxtail, Setaria viridis), johnsongrass (Sorghum halepense), kochia (Kochia scoparia), morningglory (pitted morningglory, Ipomoea lacunosa), nutsedge, purple (purple nutsedge, Cyperus rotundus), ragweed (common ragweed, Ambrosia elatior), mustard, black (black mustard, Brassica nigra), guineagrass (Panicum maximum), dallisgrass (Paspalum dilatatum), barnyardgrass (Echinochloa crus-galli), sandbur (southern sandbur, Cenchrus echinatus), sowthistle (common sowthistle, Sonchus oleraceous), Italian ryegrass (Lolium multiflorum), signalgrass (broadleaf signalgrass, Brachiaria platyphylla), dayflower (Virginia (VA) dayflower, Commelina virginica), bluegrass (annual bluegrass, Poa annua), quackgrass (Elytrigia repens), mallow (common mallow, Malva sylvestris), buckwheat, wild (wild buckwheat, Polygonum convolvulus), leafy spurge (Euphorbia esula), chickweed (common chickweed, Stellaria media), wild poinsettia (Euphorbia heterophylla), and pigweed (Amaranthus retroflexus) were planted into a blend of loam soil and sand and treated preemergence with test chemicals formulated in a non-phytotoxic solvent mixture which included a surfactant.
(§5) Treated plants and controls were maintained in a greenhouse for 21 days, after which time all species were compared to controls and visually evaluated. Plant response ratings, summarized in Table F, are based on a scale of 0 to 100 where 0 is no effect and 100 is complete control. A dash (-) response means no test result.

dallisgrass = test: Test F preemergence; type: in vivo, Paspalum dilatatum; conditions: 21 days, scale 0 to 100
Source text: as §4, §5

sowthistle = test: Test F preemergence; type: in vivo, Sonchus oleraceous; conditions: 21 days, scale 0 to 100
Summary of the method: (§6)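 Seeds are planted in a blend of loam and sand. Chemicals in a surfactant-containing non-phytotoxic solvent are applied before emergence. After 21 days under greenhouse conditions, plants are compared with controls and scored visually, 0–100.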

dayflower = test: Test F preemergence; type: in vivo, Commelina virginica; conditions: 21 days, scale 0 to 100
Summary of the method: as §6

bluegrass = test: Test F preemergence; type: in vivo, Poa annua; conditions: 21 days, scale 0 to 100
Source text: as §4, §5

quackgrass = test: Test F preemergence; type: in vivo, Elytrigia repens; conditions: 21 days, scale 0 to 100
Source text: as §4, §5

leafy spurge = test: Test F preemergence; type: in vivo, Euphorbia esula; conditions: 21 days, scale 0 to 100
Summary of the method: as §6

chickweed = test: Test F preemergence; type: in vivo, Stellaria media; conditions: 21 days, scale 0 to 100
Summary of the method: as §6

N#Cc1cccc(Oc2ncc(Cl)cn2)c1-n1cc(OCC(F)(F)F)cn1 [Compound 274, 3-[(5-chloro-2-pyrimidinyl)oxy]-2-[4-(2,2,2-trifluoroethoxy)-1H-pyrazol-1-yl]benzonitrile]
plant injury at 16 g/ha (spring barley; 16 g ai/ha, scale 0 (no effect) to 100 (complete control), read-out: Plant response rating, Barley, Spring): 0%
plant injury at 31 g/ha (spring barley; 31 g ai/ha, scale 0-100, read-out: Plant response rating, Barley, Spring): 0%
plant injury at 62 g/ha (spring barley; 62 g ai/ha, scale 0-100, read-out: Plant response rating, Barley, Spring): 10%
plant injury at 125 g/ha (spring barley; 125 g ai/ha, scale 0-100, read-out: Plant response rating, Barley, Spring): 15%
plant injury at 16 g/ha (winter barley; 16 g ai/ha, scale 0 (no effect) to 100 (complete control), read-out: Plant response rating, Barley, Winter): 0%
plant injury at 31 g/ha (winter barley; 31 g ai/ha, scale 0-100, read-out: Plant response rating, Barley, Winter): 0%
plant injury at 62 g/ha (winter barley; 62 g ai/ha, scale 0-100, read-out: Plant response rating, Barley, Winter): 10%
plant injury at 125 g/ha (winter barley; 125 g ai/ha, scale 0-100, read-out: Plant response rating, Barley, Winter): 55%
pest or weed control at 16 g/ha (wild buckwheat; 16 g ai/ha, scale 0 (no effect) to 100 (complete control), read-out: Plant response rating, Buckwheat, Wild): 10%
pest or weed control at 31 g/ha (wild buckwheat; 31 g ai/ha, scale 0-100, read-out: Plant response rating, Buckwheat, Wild): 100%
pest or weed control at 62 g/ha (wild buckwheat; 62 g ai/ha, scale 0-100, read-out: Plant response rating, Buckwheat, Wild): 100%
pest or weed control at 125 g/ha (wild buckwheat; 125 g ai/ha, scale 0-100, read-out: Plant response rating, Buckwheat, Wild): 100%
pest or weed control at 16 g/ha (wild mustard; 16 g ai/ha, scale 0 (no effect) to 100 (complete control), read-out: Plant response rating, Mustard, Wild): 15%
pest or weed control at 31 g/ha (wild mustard; 31 g ai/ha, scale 0-100, read-out: Plant response rating, Mustard, Wild): 25%
pest or weed control at 62 g/ha (wild mustard; 62 g ai/ha, scale 0-100, read-out: Plant response rating, Mustard, Wild): 95%
pest or weed control at 125 g/ha (wild mustard; 125 g ai/ha, scale 0-100, read-out: Plant response rating, Mustard, Wild): 100%
pest or weed control at 16 g/ha (field poppy; 16 g ai/ha, scale 0-100, read-out: Plant response rating, Field Poppy): 25%
pest or weed control at 31 g/ha (field poppy; 31 g ai/ha, scale 0 to 100 (0 no effect, 100 complete control), read-out: Plant response rating, Field Poppy): 40%
pest or weed control at 62 g/ha (field poppy; 62 g ai/ha, scale 0 to 100 (0 no effect, 100 complete control), read-out: Plant response rating, Field Poppy): 40%
pest or weed control at 125 g/ha (field poppy; 125 g ai/ha, scale 0 to 100 (0 no effect, 100 complete control), read-out: Plant response rating, Field Poppy): 80%
pest or weed control at 16 g/ha (kochia; 16 g ai/ha, scale 0-100, read-out: Plant response rating, Kochia): 60%
pest or weed control at 31 g/ha (kochia; 31 g ai/ha, scale 0 to 100 (0 no effect, 100 complete control), read-out: Plant response rating, Kochia): 70%
pest or weed control at 62 g/ha (kochia; 62 g ai/ha, scale 0 to 100 (0 no effect, 100 complete control), read-out: Plant response rating, Kochia): 90%
pest or weed control at 125 g/ha (kochia; 125 g ai/ha, scale 0 to 100 (0 no effect, 100 complete control), read-out: Plant response rating, Kochia): 95%
pest or weed control at 16 g/ha (chamomile; 16 g ai/ha, scale 0-100, read-out: Plant response rating, Chamomile): 5%
pest or weed control at 31 g/ha (chamomile; 31 g ai/ha, scale 0 to 100 (0 no effect, 100 complete control), read-out: Plant response rating, Chamomile): 10%
pest or weed control at 62 g/ha (chamomile; 62 g ai/ha, scale 0 to 100 (0 no effect, 100 complete control), read-out: Plant response rating, Chamomile): 25%
pest or weed control at 125 g/ha (chamomile; 125 g ai/ha, scale 0 to 100 (0 no effect, 100 complete control), read-out: Plant response rating, Chamomile): 25%
Plant response rating, Surinam Grass (surinam grass; 16 g ai/ha): 10
Plant response rating, Surinam Grass (surinam grass; 31 g ai/ha): 35
Plant response rating, Surinam Grass (surinam grass; 62 g ai/ha): 70
Plant response rating, Surinam Grass (surinam grass; 125 g ai/ha): 100
Plant response rating, Surinam Grass (surinam grass; 250 g ai/ha): 100
Plant response rating, Dallisgrass (dallisgrass; 16 g ai/ha): 95
Plant response rating, Dallisgrass (dallisgrass; 31 g ai/ha): 100
Plant response rating, Dallisgrass (dallisgrass; 62 g ai/ha): 100
Plant response rating, Dallisgrass (dallisgrass; 125 g ai/ha): 100
Plant response rating, Dallisgrass (dallisgrass; 250 g ai/ha): 100
Plant response rating, Sowthistle (sowthistle; 16 g ai/ha): 100
Plant response rating, Sowthistle (sowthistle; 31 g ai/ha): 100
Plant response rating, Sowthistle (sowthistle; 62 g ai/ha): 100
Plant response rating, Sowthistle (sowthistle; 125 g ai/ha): 100
Plant response rating, Sowthistle (sowthistle; 250 g ai/ha): 100
Plant response rating, Dayflower, VA (dayflower; 16 g ai/ha): 90
Plant response rating, Dayflower, VA (dayflower; 31 g ai/ha): 95
Plant response rating, Dayflower, VA (dayflower; 62 g ai/ha): 98
Plant response rating, Dayflower, VA (dayflower; 125 g ai/ha): 100
Plant response rating, Dayflower, VA (dayflower; 250 g ai/ha): 100
Plant response rating, Bluegrass (bluegrass; 16 g ai/ha): 0
Plant response rating, Bluegrass (bluegrass; 31 g ai/ha): 20
Plant response rating, Bluegrass (bluegrass; 62 g ai/ha): 50
Plant response rating, Bluegrass (bluegrass; 125 g ai/ha): 85
Plant response rating, Bluegrass (bluegrass; 250 g ai/ha): 100
Plant response rating, Quackgrass (quackgrass; 16 g ai/ha): 40
Plant response rating, Quackgrass (quackgrass; 31 g ai/ha): 40
Plant response rating, Quackgrass (quackgrass; 62 g ai/ha): 70
Plant response rating, Quackgrass (quackgrass; 125 g ai/ha): 85
Plant response rating, Quackgrass (quackgrass; 250 g ai/ha): 98
Plant response rating, Leafy Spurge (leafy spurge; 16 g ai/ha): 100
Plant response rating, Leafy Spurge (leafy spurge; 31 g ai/ha): 98
Plant response rating, Leafy Spurge (leafy spurge; 62 g ai/ha): 100
Plant response rating, Leafy Spurge (leafy spurge; 125 g ai/ha): 100
Plant response rating, Leafy Spurge (leafy spurge; 250 g ai/ha): 100
Plant response rating, Chickweed (chickweed; 16 g ai/ha): 98
Plant response rating, Chickweed (chickweed; 31 g ai/ha): 98
Plant response rating, Chickweed (chickweed; 62 g ai/ha): 100
Plant response rating, Chickweed (chickweed; 125 g ai/ha): 100
Plant response rating, Chickweed (chickweed; 250 g ai/ha): 100
